Results on 5 compounds are retold here after patent US20150158868A1, “COMPOUNDS USEFUL AS INHIBITORS OF ATR KINASE” (Vertex Pharmaceuticals Incorporated, priority 2013, published 2015).

Assay [1] concerns the target T1, ATR kinase, in the presence of partner proteins ATRIP, CLK2 and TopBP1 (Homo sapiens, UniProt Q13535).
T1 construct: in the presence of 4 nM full-length ATR, 40 nM full-length ATRIP
Nature of the assay: ATR-Complex Inhibition Assay (radioactive-phosphate incorporation). The class given is biochemical. The note with it: Ki(app); 4 nM full-length ATR with ATRIP, CLK2 and TopBP1(A891-S1105), 10 μM ATP, 25° C. On the procedure:
Compounds were screened for their ability to inhibit ATR kinase, in the presence of partner proteins ATRIP, CLK2 and TopBP1, using a radioactive-phosphate incorporation assay. Assays were carried out in a mixture of 50 mM Tris/HCl (pH 7.5), 10 mM MgCl2 and 1 mM DTT. Final substrate concentrations were 10 μM [g-33P]ATP (3.5 μCi 33P ATP/nmol ATP, Perkin Elmer, Massachusetts, USA) and 800 μM target peptide (ASELPASQPQPFSAKKK, Isca Biochemicals, Cambridgeshire, UK).
Assays were carried out at 25° C. in the presence of 4 nM full-length ATR, 40 nM full-length ATRIP, 40 nM full-length CLK2 and 600 nM TopBP1(A891-S1105). An enzyme stock buffer solution was prepared containing all of the reagents listed above, with the exception of target peptide, ATP and the test compound of interest. This enzyme stock was pre-incubated for 30 minutes at 25° C. 8.5 μL of the enzyme stock solution was placed in a 96-well plate followed by addition of 5 μl of target peptide and 2 μL of DMSO stock containing serial dilutions of the test compound (typically starting from a final concentration of 1.5 μM with 2.5-fold serial dilutions) in duplicate (final DMSO concentration 7%). The plate was pre-incubated for 10 minutes at 25° C. and the reaction initiated by addition of 15 μL [g-33P]ATP (final concentration 10 μM).
The reaction was stopped after […] by the addition of 30 μL 0.3 M phosphoric acid containing 2 mM ATP. A phosphocellulose filter 96-well plate (Multiscreen HTS MAPHNOB50, Merck-Millipore, Massachusetts, USA) was pretreated with 100 μL 0.1 M phosphoric acid prior to the addition of 45 μL of the stopped assay mixture. The plate was washed with 5×200 μL 0.1 M phosphoric acid. […]
After removing mean background values for all of the data points, Ki(app) data were calculated from non-linear regression analysis of the initial rate data using the Prism software package (GraphPad Prism version 6.0c for Macintosh, GraphPad Software Inc., San Diego, USA). […]

The target in assay [2] is T2, ATR kinase (full-length ATR) (Homo sapiens, UniProt Q13535).
T2 construct: Assays were carried out at 25° C. in the presence of 5 nM full-length ATR
Briefly: ATR Inhibition Assay (radioactive-phosphate incorporation). The class given is biochemical. Particulars: Ki(app); 5 nM full-length ATR, 10 μM ATP, 25° C. The protocol:
Compounds were screened for their ability to inhibit ATR kinase using a radioactive-phosphate incorporation assay. Assays were carried out in a mixture of 50 mM Tris/HCl (pH 7.5), 10 mM MgCl2 and 1 mM DTT. Final substrate concentrations were 10 μM [γ-33P]ATP (3 mCi 33P ATP/mmol ATP, Perkin Elmer) and 800 μM target peptide (ASELPASQPQPFSAKKK).
Assays were carried out at 25° C. in the presence of 5 nM full-length ATR. An assay stock buffer solution was prepared containing all of the reagents listed above, with the exception of ATP and the test compound of interest. 13.5 μL of the stock solution was placed in a 96 well plate followed by addition of 2 μL of DMSO stock containing serial dilutions of the test compound (typically starting from a final concentration of 15 μM with 3-fold serial dilutions) in duplicate (final DMSO concentration 7%). The plate was pre-incubated for 10 minutes at 25° C. and the reaction initiated by addition of 15 μL [γ-33P]ATP (final concentration 10 μM).
The reaction was stopped after 24 hours by the addition of 30 μL 0.1M phosphoric acid containing 2 mM ATP. A multiscreen phosphocellulose filter 96-well plate (Millipore, Cat no. MAPHN0B50) was pretreated with 100 μL 0.2M phosphoric acid prior to the addition of 45 μL of the stopped assay mixture. The plate was washed with 5×200PL 0.2M phosphoric acid. After drying, 100 μL Optiphase ‘SuperMix’ liquid scintillation cocktail (Perkin Elmer) was added to the well prior to scintillation counting (1450 Microbeta Liquid Scintillation Counter, Wallac).
After removing mean background values for all of the data points, Ki(app) data were calculated from non-linear regression analysis of the initial rate data using the Prism software package (GraphPad Prism version 3.0cx for Macintosh, GraphPad Software, San Diego Calif., USA).
Compounds with a Ki value of <0.01 μM are marked with “+++.” Compounds with a Ki value >0.01 μM but <1 μM are marked with “++.” Compounds with a Ki value >1 μM but <5 μM are marked with “+.”

The test system of assay [3] is HCT116 colorectal cancer cells. Nature of the assay: Cisplatin Sensitization Assay (96 h cell viability MTS). The assay is classed as cell-based. The note with it: concentration of compound required to reduce the IC50 of Cisplatin alone by at least 3-fold; HCT116, 96 h MTS. The protocol:
Compounds can be screened for their ability to sensitize HCT116 colorectal cancer cells to Cisplatin using a 96 h cell viability (MTS) assay. […] Compounds and Cisplatin are then both added simultaneously to the cell media in 2-fold serial dilutions from a top final concentration of 10 μM as a full matrix of concentrations in a final cell volume of 200 μl, and the cells are then incubated at 37° C. in 5% CO2. After 96 h, 40 μl of MTS reagent (Promega G358a) is added to each well and the cells are incubated for 1 h at 37° C. in 5% CO2. Finally, absorbance is measured at 490 nm using a SpectraMax Plus 384 reader (Molecular Devices) and the concentration of compound required to reduce the IC50 of Cisplatin alone by at least 3-fold (to 1 decimal place) can be reported.
Compounds with a Cisplatin sensitization value of <0.02 μM are marked with “+++.” Compounds with a Cisplatin sensitization value >0.02 μM but <0.2 μM are marked with “++.” Compounds with a Cisplatin sensitization value >0.2 μM but <5 μM are marked with “+.”

Molecules are shown by their SMILES.

T1 sequence (Q13535 whole entry): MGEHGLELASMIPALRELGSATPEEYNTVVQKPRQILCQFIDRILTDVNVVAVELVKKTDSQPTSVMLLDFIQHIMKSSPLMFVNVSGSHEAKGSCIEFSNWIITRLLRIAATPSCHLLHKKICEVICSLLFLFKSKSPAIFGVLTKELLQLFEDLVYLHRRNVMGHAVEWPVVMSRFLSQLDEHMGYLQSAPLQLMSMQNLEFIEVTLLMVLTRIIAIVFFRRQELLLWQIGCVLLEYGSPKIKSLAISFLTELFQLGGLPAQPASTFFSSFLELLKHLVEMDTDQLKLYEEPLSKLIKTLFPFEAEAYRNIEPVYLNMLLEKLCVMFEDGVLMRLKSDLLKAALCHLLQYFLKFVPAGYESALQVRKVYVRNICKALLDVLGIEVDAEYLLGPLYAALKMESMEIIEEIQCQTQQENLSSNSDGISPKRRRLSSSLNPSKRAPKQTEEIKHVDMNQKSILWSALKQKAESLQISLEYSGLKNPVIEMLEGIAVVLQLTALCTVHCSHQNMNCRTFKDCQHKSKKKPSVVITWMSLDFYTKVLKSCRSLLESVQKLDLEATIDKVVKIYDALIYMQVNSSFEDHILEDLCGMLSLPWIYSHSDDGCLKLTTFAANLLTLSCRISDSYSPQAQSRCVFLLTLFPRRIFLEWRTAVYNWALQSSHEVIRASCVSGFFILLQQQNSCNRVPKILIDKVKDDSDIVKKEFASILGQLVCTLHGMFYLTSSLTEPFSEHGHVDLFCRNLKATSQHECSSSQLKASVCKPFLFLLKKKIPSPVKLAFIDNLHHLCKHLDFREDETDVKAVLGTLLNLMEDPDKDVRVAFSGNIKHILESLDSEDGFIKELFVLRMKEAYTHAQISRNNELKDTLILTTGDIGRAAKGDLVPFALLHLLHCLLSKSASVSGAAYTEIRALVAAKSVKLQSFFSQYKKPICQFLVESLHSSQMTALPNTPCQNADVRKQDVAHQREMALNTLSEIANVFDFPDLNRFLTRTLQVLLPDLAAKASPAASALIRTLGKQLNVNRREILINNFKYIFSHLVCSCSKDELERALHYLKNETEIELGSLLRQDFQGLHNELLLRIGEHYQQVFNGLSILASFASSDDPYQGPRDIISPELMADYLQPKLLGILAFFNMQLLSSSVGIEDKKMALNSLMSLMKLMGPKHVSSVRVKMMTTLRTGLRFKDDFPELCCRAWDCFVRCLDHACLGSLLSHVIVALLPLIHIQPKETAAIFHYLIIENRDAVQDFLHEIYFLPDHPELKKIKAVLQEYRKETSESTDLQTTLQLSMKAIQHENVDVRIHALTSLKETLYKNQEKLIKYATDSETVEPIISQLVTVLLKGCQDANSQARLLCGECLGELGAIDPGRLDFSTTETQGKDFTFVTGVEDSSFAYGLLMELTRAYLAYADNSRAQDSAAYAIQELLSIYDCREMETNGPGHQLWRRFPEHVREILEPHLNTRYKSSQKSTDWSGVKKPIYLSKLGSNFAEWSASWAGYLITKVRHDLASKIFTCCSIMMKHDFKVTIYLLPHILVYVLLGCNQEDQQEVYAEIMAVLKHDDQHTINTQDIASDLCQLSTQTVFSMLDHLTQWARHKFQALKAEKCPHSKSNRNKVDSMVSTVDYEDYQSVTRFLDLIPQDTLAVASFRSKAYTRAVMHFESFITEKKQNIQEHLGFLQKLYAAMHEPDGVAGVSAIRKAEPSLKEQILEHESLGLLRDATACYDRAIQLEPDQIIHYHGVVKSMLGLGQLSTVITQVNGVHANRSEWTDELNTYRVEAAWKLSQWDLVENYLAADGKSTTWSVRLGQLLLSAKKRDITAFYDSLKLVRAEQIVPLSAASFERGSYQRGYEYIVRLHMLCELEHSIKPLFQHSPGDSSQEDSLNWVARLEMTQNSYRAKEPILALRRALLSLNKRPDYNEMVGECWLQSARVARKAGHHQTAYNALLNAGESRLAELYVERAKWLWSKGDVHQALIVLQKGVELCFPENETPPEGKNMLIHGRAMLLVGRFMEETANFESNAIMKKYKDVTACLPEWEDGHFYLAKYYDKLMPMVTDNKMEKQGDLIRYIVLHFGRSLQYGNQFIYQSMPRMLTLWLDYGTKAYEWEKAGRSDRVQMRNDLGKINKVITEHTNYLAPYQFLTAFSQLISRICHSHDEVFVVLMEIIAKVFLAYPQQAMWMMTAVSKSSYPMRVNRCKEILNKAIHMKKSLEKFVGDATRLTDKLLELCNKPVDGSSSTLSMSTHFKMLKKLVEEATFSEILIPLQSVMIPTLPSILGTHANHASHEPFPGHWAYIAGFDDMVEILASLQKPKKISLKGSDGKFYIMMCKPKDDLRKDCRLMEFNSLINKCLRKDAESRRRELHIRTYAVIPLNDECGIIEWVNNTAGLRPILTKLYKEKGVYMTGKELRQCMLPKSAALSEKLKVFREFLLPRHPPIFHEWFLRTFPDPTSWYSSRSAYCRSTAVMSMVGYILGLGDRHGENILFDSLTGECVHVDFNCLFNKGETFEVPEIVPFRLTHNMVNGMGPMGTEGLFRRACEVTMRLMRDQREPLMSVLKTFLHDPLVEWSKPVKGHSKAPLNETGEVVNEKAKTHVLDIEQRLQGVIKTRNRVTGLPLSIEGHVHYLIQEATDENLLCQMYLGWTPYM
T1 sequence (Q8WXE1 whole entry partner): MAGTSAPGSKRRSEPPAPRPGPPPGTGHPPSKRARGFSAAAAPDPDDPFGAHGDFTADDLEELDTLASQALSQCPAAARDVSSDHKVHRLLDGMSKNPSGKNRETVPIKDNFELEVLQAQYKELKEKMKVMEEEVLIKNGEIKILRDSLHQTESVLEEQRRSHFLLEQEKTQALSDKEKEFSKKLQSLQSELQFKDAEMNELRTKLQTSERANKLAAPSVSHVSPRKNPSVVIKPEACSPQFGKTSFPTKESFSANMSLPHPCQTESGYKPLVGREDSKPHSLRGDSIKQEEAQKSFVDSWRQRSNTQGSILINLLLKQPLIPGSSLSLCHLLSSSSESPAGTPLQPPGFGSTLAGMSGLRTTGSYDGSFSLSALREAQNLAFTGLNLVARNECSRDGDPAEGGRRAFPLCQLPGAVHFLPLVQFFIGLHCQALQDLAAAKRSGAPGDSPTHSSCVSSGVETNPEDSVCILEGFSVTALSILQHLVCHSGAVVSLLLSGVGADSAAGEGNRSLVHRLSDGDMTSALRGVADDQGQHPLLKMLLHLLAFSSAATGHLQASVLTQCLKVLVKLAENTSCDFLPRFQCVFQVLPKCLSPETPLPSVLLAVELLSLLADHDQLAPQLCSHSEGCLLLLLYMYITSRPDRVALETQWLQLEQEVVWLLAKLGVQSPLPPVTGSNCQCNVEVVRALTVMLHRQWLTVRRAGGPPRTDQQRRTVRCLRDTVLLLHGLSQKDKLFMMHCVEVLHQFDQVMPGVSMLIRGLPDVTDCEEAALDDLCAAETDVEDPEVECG
T1 sequence (Q92547 978-1192 partner limits assumed): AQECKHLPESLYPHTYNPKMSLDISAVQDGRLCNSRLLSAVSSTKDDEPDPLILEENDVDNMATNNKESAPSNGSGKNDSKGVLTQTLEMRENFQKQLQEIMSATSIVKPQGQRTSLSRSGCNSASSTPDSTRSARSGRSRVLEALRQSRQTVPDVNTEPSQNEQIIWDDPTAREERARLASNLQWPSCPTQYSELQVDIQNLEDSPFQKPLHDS
T2 sequence (Q13535 whole entry): as the sequence (Q13535 whole entry) above

Turning to `CN1CCN(C(=O)C2CCN(c3c(F)cncc3NC(=O)c3c(N)nn4ccccc34)CC2)CC1` [I-B-3, 2-amino-N-(5-fluoro-4-(4-(4-methylpiperazine-1-carbonyl)piperidin-1-yl)pyridin-3-yl)pyrazolo[1,5-a]pyridine-3-carboxamide], the Ki was less than 0.01 µM in assay [1] and 1 to 5 µM in assay [2]. Besides, in assay [3], the “Cisplatin Sensitization Assay” value was “+ (Compounds with a Cisplatin sensitization value >0.2 μM but <5 μM)”.
With `CN1CCC(Oc2ccncc2NC(=O)c2c(N)nc3cccnn23)CC1` [I-A-1, 2-amino-N-(4-((1-methylpiperidin-4-yl)oxy)pyridin-3-yl)imidazo[1,2-b]pyridazine-3-carboxamide], the Ki was less than 0.01 µM in assay [1] and 0.01 to 1 µM in assay [2]. Further, in assay [3], the “Cisplatin Sensitization Assay” value is recorded as “++ (Compounds with a Cisplatin sensitization value >0.02 μM but <0.2 μM)”.
Consider `CN1CCN(C(=O)C2CCN(c3c(F)cncc3NC(=O)c3c(N)nc4cccnn34)CC2)CC1` [I-A-3, 2-amino-N-(5-fluoro-4-(4-(4-methylpiperazine-1-carbonyl)piperidin-1-yl)pyridin-3-yl)imidazo[1,2-b]pyridazine-3-carboxamide], for which the Ki in assay [2] fell in the range of 0.01 to 1 µM. Moreover, the “Cisplatin Sensitization Assay” value in assay [3] is listed as “+++ (Compounds with a Cisplatin sensitization value of <0.02 μM)”.
As to `CCOc1ccncc1NC(=O)c1c(N)nn2ccccc12` [I-B-1, 2-amino-N-(4-ethoxypyridin-3-yl)pyrazolo[1,5-a]pyridine-3-carboxamide], the Ki is less than 0.01 µM in assay [1] and 0.01 to 1 µM in assay [2]. The “Cisplatin Sensitization Assay” value in assay [3] is listed as “+++ (Compounds with a Cisplatin sensitization value of <0.02 μM)”.
Take `CN1CCC(Oc2ccncc2NC(=O)c2c(N)nc3ccc(C(F)(F)F)nn23)CC1` [I-A-2, 2-amino-N-(4-((1-methylpiperidin-4-yl)oxy)pyridin-3-yl)-6-(trifluoromethyl)imidazo[1,2-b]pyridazine-3-carboxamide]: the Ki in assay [2] lay within 0.01 to 1 µM. Further, the “Cisplatin Sensitization Assay” value in assay [3] was “++ (Compounds with a Cisplatin sensitization value >0.02 μM but <0.2 μM)”.
